Data published in patent publication US6747022B2, “Calcium salts of 1,5-benzodiazepine derivatives, process for producing the salts and drugs containing the same” (Zeria Pharmaceutical Co., Ltd., priority 1999, dated 2004).

Assays:
[1] = test system: pentagastrin-stimulated gastric acid secretion; experiment: Test on inhibition of pentagastrin-stimulated gastric acid secretion; assay type: in vivo, rat; settings: SD rats, 0.03 mg/kg intraduodenal, acid output 1 to 4 hours after administration, pentagastrin 15 μg/kg/hr
Method: Test on Inhibition of Pentagastrin-stimulated Gastric Acid Secretion
Male Sprague-Dawley (SD)-strain rats were used. Under anesthesia with ether, each rat was subjected to the operation for pylorus ligation and placement of a duodenal catheter and gastric fistula. After completion of the operation, each rat was held in a Bollman-type cage and constantly infused with 15 μg/kg/hr of pentagastrin through the tail vein. Test compounds were suspended in a 0.5% sodium carboxymethylcellulose solution (which will hereinafter be called “vehicle”). Administration of the vehicle or test compound was carried out through the intraduodenal catheter 1 hour after the beginning of pentagastrin infusion. Acidity of the collected gastric juice was measured by an automatic titrator. Acid output was determined by multiplying the volume of gastric juice by its acidity. Inhibition of acid output for 3 hours from 1 to 4 hours after administration of the test compound was calculated by the following equation.
Inhibition (%)=(mean acid output of vehicle administered group−mean acid output of compound group)/mean acid output of vehicle administered group×100

[2] = molecular target: T1, CCK-B receptor (Cavia porcellus, UniProt H0VZC5); experiment: Binding test to CCK-B receptor ([3H]CCK-8, cerebral cortex membranes); set-up: species or system guinea pig; settings: inhibition of specific binding of 1.0 nM [3H]CCK-8, 25° C., 2 hours
T1 sequence (H0VZC5 1-426): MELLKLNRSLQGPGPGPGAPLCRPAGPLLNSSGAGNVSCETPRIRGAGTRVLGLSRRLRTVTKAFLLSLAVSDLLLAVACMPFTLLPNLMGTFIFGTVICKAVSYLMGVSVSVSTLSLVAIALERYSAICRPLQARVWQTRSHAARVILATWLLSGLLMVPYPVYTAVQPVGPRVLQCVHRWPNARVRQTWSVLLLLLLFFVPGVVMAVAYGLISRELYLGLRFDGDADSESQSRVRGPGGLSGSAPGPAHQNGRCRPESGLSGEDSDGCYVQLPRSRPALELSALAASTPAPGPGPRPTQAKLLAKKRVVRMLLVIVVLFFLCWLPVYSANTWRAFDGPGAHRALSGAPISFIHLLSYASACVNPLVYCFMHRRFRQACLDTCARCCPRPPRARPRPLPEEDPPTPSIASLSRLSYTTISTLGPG
Method: Binding Test to CCK-B Receptor
The cerebral cortex excised from a Hartley-strain male guinea pig was homogenized in 50 times the amount of a 50 mM Tris-HCl buffer (pH 7.4), followed by centrifugal separation at 50000×g for 10 minutes. Addition of the same amount of the same buffer to the precipitate thus obtained and centrifugation were repeated 2 times. The final precipitate was homogenized in a 10 mM HEPES buffer (pH 6.5) containing 5 mM magnesium chloride, 1 mM EGTA, 0.25 mg/ml bacitracin and 130 mM sodium chloride, and used as the receptor preparation.
Binding assay was conducted by adding, to 50 μl of a test compound solution, 50 μl of a [^3H]CCK-8 solution having the final concentration of 1.0 nM and 900 μl of the receptor preparation (protein content: 800 μg/tube) and reacting them at 25° C. for 2 hours. After completion of the reaction, the mixture was suction filtrated through a Whatman GF/B filter treated in advance with 0.1% BSA. Rightly after filtration, the filter was washed four times, each with 3 ml of ice-cold 50 mM Tris-HCl buffer (pH 7.4). After a scintillator was added to the filter and the resulting filter was then allowed to stand for a day, radioactivity on the filter was measured by a liquid scintillation counter. The binding of [^3H]CCK-8 in the presence of 1 μM CCK-8 when the test compound was not added was defined as non-specific binding. […]

[3] = Test on hygroscopicity under high humidity conditions (2), 0.1 g sample; assay type: physicochemical
Method: (§1) Test 3 (Test on Hygroscopicity under High Humidity Conditions)
(2) A saturated aqueous solution of potassium sulfate was charged in a desiccator and was allowed to stand for at least one day in a temperature controlled room set at 25° C. The sample (0.1 g) was stored and weighed. Hygroscopicity was measured by its weight change. The relative humidity at that time was 97.3% RH.

[4] = Test on hygroscopicity under high humidity conditions (1), 0.5 g sample; assay type: physicochemical
Method: as §1
(1) A saturated aqueous solution of potassium sulfate was charged in a desiccator and was allowed to stand for at least one day in a temperature controlled room set at 25° C. The sample (0.5 g) was stored and weighed. Hygroscopicity was measured by its weight change. The relative humidity at that time was 97.3% RH.

Question: Which results are given for `CC(C)(C)C(=O)CN1C(=O)[C@H](NC(=O)Nc2cccc(C(=O)O)c2)CN(C2CCCCC2)c2ccccc21` [Compound of Example 1 in the free form, (R)-(−)-3-[3-(1-tert-butylcarbonylmethyl-2-oxo-5-cyclohexyl-1,3,4,5-tetrahydro-2H-1,5-benzodiazepin-3-yl)ureido]benzoic acid, reference compound]?
Answer: Inhibition of acid output (%) [1]: 4.8%; IC50 [2]: 1.45 nM

Question: With `CC(C)(C)C(=O)CN1C(=O)[C@H](NC(=O)Nc2cccc(C(C)(C)C(=O)O)c2)CN(C2CCCCC2)c2ccccc21` [Compound of Example 4 in the free form, (R)-(−)-2-[3-[3-(1-tert-butylcarbonylmethyl-2-oxo-5-cyclohexyl-1,3,4,5-tetrahydro-2H-1,5-benzodiazepin-3-yl)ureido]phenyl]-2-methylpropionic acid, reference compound] as the molecule, how does the “Inhibition of acid output (%)” value ([1]; Table 2) read?
Answer: The value was 13.7%.

Question: With “calcium (R)-(−)-2-[3-[3-(1-tert-butylcarbonylmethyl-2-oxo-5-cyclohexyl-1,3,4,5-tetrahydro-2H-1,5-benzodiazepin-3-yl)ureido]phenyl]-2-methylpropionate [Compound of Example 4 (Ca salt)]” as the molecule, how does the “Inhibition of acid output (%)” value ([1]; Table 2) read?
Answer: The value was 46.1%.

Question: What about the “Hygroscopicity compared with the corresponding Na salt” value ([3]; 25° C., 97.3% RH, versus Compound of Example 5 in WO99/64403) of the same molecule?
Answer: The value was “lower hygroscopicity”.

Question: And the “Weight change (%) when stored at 25° C. and 97.3% RH” value (from here on “Weight change (%) when stored”) ([3]; storage days 0)?
Answer: Its value is 0%.

Question: And the “Weight change (%) when stored” value ([3]; storage days 2)?
Answer: The value was 8.15%.

Question: And the “Weight change (%) when stored” value ([3]; storage days 4)?
Answer: The value was 7.87%.

Question: What about the “Weight change (%) when stored” value ([3]; storage days 7) of the same molecule?
Answer: The value was 8.38%.

Question: What about the “Weight change (%) when stored” value ([3]; storage days 9) of the same molecule?
Answer: The value was 9.07%.

Question: What about the “Weight change (%) when stored” value ([3]; storage days 11) of the same molecule?
Answer: The value was 8.14%.

Question: What about the “Weight change (%) when stored” value ([3]; storage days 18) of the same molecule?
Answer: Its value is 8.51%.

Question: What about the “Weight change (%) when stored” value ([3]; storage days 30) of the same molecule?
Answer: The value was 8.23%.

Question: Which results are given for `CC(C)(C)C(=O)CN1C(=O)[C@H](NC(=O)Nc2cccc(C(=O)[O-])c2)CN(C2CCCCC2)c2ccccc21.CC(C)(C)C(=O)CN1C(=O)[C@H](NC(=O)Nc2cccc(C(=O)[O-])c2)CN(C2CCCCC2)c2ccccc21.[Ca+2]` [Compound of Example 1 (Ca salt), calcium (R)-(−)-3-[3-(1-tert-butylcarbonylmethyl-2-oxo-5-cyclohexyl-1,3,4,5-tetrahydro-2H-1,5-benzodiazepin-3-yl)ureido]benzoate]?
Answer: Inhibition of acid output (%) [1]: 42.3%; IC50 [2]: 1.68 nM; Hygroscopicity compared with the corresponding Na salt ([4]; 25° C., 97.3% RH, versus Na salt of Compound of Example 143 in WO98/25911): lower hygroscopicity; Weight change (%) when stored at 25° C. and 97.3% RH ([4]; storage time 0 day): 0%; Weight change (%) when stored at 25° C. and 97.3% RH ([4]; storage time 1 day): 4.61%; Weight change (%) when stored at 25° C. and 97.3% RH ([4]; storage time 2 days): 5.00%; Weight change (%) when stored at 25° C. and 97.3% RH ([4]; storage time 3 days): 4.94%; Weight change (%) when stored at 25° C. and 97.3% RH ([4]; storage time 4 days): 4.97%; Weight change (%) when stored at 25° C. and 97.3% RH ([4]; storage time 10 days): 5.43%; Weight change (%) when stored at 25° C. and 97.3% RH ([4]; storage time 14 days): 5.41%
